Results on 15 compounds are retold here after PubChem BioAssay (NCI).

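Protocol summary: plate cells (96-well), add compound at 5 concentrations, incubate 48 h, interpolate endpoints linearly. GI50: concentration for 50% inhibition of growth. TGI: concentration producing complete growth inhibition.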

Some test systems named below: HCC-2998 colon; A498 renal; SW-620 colon; NCI-H23 lung; UO-31 renal; HT29 colon; NCI-H522 lung; SF-539 CNS; OVCAR-8 ovarian.
Common to all, as to assay: growth of human tumour cells (NCI), 48 h

`COc1cc(C(=O)C/C(CCC(=O)Nc2ccc(Cl)cc2Cl)=N/Nc2nnc(C)n2N)ccc1O`: the TGI in the experiment on HCC-2998 colon, in the experiment with A498 renal, with SW-620 colon, in the experiment with NCI-H23 lung, in the experiment on UO-31 renal and with HT29 colon was > 100 µM in each case. For the same compound, the TGI in the experiment with NCI-H522 lung, in the experiment on SF-539 CNS and in the experiment on OVCAR-8 ovarian was > 100 µM in each case.

Consider `O=c1cccccc1NCCNc1cccccc1=O`, for which the TGI in the experiment with SW-620 colon, in the experiment on NCI-H23 lung, with UO-31 renal, with HT29 colon, with NCI-H522 lung and with SF-539 CNS was > 100 µM in each case. For the same compound, the TGI with OVCAR-8 ovarian is > 100 µM.

As for `C[C@@H](c1ccccc1)N(CC#N)C1CCC[C@H]1O` (stereo partly drawn), the TGI in the experiment on HCC-2998 colon, in the experiment with A498 renal, with SW-620 colon, in the experiment on NCI-H23 lung, in the experiment on UO-31 renal and in the experiment on HT29 colon was > 100 µM each time. For the same compound, the TGI with NCI-H522 lung, in the experiment with SF-539 CNS and in the experiment on OVCAR-8 ovarian was > 100 µM each time.

Turning to `O=C(Nc1ccccc1C(=O)O)C(=O)C(C(=O)c1ccccc1-c1ccccc1)C1OC(=O)c2ccccc21` (stereo not drawn), the TGI in the experiment with HCC-2998 colon was found to be 30.6 µM; in the experiment with A498 renal, 35.3 µM; in the experiment with SW-620 colon, 56.6 µM; in the experiment with NCI-H23 lung, 40.5 µM; in the experiment on UO-31 renal it was 32.5 µM; in the experiment on HT29 colon, 65.9 µM. Further, the values for the TGI in the experiment on NCI-H522 lung, in the experiment with SF-539 CNS and in the experiment with OVCAR-8 ovarian were 30.6 µM, 35.8 µM and 37.9 µM, respectively.

For the compound `N[C@H](C(=O)O)[C@@H](Cl)CC(=O)O`, the TGI in the experiment on HCC-2998 colon, in the experiment with A498 renal, in the experiment on SW-620 colon, in the experiment with NCI-H23 lung, with UO-31 renal and in the experiment with HT29 colon was > 100 µM in each case. Besides, the TGI in the experiment with NCI-H522 lung, in the experiment with SF-539 CNS and with OVCAR-8 ovarian was > 100 µM each time.

In the case of `COC(=O)C1=C(c2cc(OC)c(OC)c(OC)c2)O[C@H](c2ccc3c(c2)OCO3)[C@H]1COC(C)=O`, the TGI with HCC-2998 colon was > 100 µM; in the experiment with A498 renal, 48.6 µM; in the experiment on SW-620 colon, > 100 µM; in the experiment with NCI-H23 lung, 57.1 µM; in the experiment on UO-31 renal, 80 µM; with HT29 colon it was 95.7 µM. Besides, the TGI in the experiment with SF-539 CNS was 91.1 µM; in the experiment on OVCAR-8 ovarian it was > 100 µM.

Regarding `C/C=C/C(=O)[O-].N.N.N.N.N.[Co+3].[O-][Cl+3]([O-])([O-])[O-]`, the GI50 with HCC-2998 colon, in the experiment with A498 renal, in the experiment with SW-620 colon, in the experiment on NCI-H23 lung, in the experiment on UO-31 renal and in the experiment with HT29 colon was > 100 µM each time. Further, the GI50 in the experiment with NCI-H522 lung, in the experiment with SF-539 CNS and in the experiment on OVCAR-8 ovarian was > 100 µM each time. Also, the TGI in the experiment with HCC-2998 colon, with A498 renal, with SW-620 colon, in the experiment with NCI-H23 lung, in the experiment on UO-31 renal and in the experiment with HT29 colon was > 100 µM throughout. The TGI in the experiment with NCI-H522 lung, with SF-539 CNS and with OVCAR-8 ovarian was > 100 µM throughout.

Take `Cc1ccc(SCC(O)=C2C(=O)CCCC2=O)cc1`: the TGI in the experiment on SW-620 colon, in the experiment on NCI-H23 lung, in the experiment with UO-31 renal, with HT29 colon, in the experiment with NCI-H522 lung and in the experiment on SF-539 CNS was > 100 µM throughout. For the same compound, the TGI with OVCAR-8 ovarian was > 100 µM.

On to `c1ccc(-c2cnc3nc4ccccc4nc3n2)cc1`, for which the TGI with HCC-2998 colon stood at 43.3 µM; in the experiment on A498 renal, 27.1 µM; in the experiment with SW-620 colon, 18 µM; in the experiment with NCI-H23 lung, 22 µM; in the experiment with UO-31 renal it was 19.5 µM; with HT29 colon, 35.5 µM. The values for the TGI in the experiment on NCI-H522 lung, with SF-539 CNS and in the experiment with OVCAR-8 ovarian were 19 µM, 15.8 µM and 6.8 µM, respectively.

On to `COc1cc2c3c(c1OC)Oc1ccc(cc1)CC1c4c(cc(OC)c(OC)c4Oc4ccc(cc4)CC3N(C)CC2)CCN1C` (stereo not drawn), for which the TGI is 28 µM with HCC-2998 colon; 34 µM in the experiment on A498 renal; 30.4 µM with SW-620 colon; > 100 µM in the experiment with NCI-H23 lung; 31.4 µM with UO-31 renal; 35.2 µM in the experiment on HT29 colon. The TGI in the experiment on NCI-H522 lung stood at 25.8 µM; in the experiment on SF-539 CNS, 28 µM; in the experiment on OVCAR-8 ovarian, 60 µM.

Take `CCC1(CC)C(=O)[N-]C(=O)[N-]C1=O.[Au+].[Au+].c1ccc([PH+](c2ccccc2)c2ccccc2)cc1.c1ccc([PH+](c2ccccc2)c2ccccc2)cc1`: the GI50 in the experiment with HCC-2998 colon is 1.98 µM; with UO-31 renal, 1.65 µM; in the experiment on NCI-H522 lung, 0.119 µM. Moreover, the TGI in the experiment on HCC-2998 colon stood at 3.41 µM; with UO-31 renal, 3.04 µM; with NCI-H522 lung it was 0.244 µM.

As for `O=C1C2=C(c3ccccc31)C(c1ccc(Cl)cc1)NC(=S)N2` (stereo not drawn), the TGI in the experiment on A498 renal was > 100 µM; in the experiment with SW-620 colon, 40.5 µM; in the experiment with NCI-H23 lung it was 40.5 µM; with UO-31 renal, 35 µM; in the experiment on HT29 colon it was 90.7 µM; in the experiment with NCI-H522 lung, 56.2 µM. The results for the TGI in the experiment on SF-539 CNS and with OVCAR-8 ovarian were 29.6 µM and 38.4 µM, respectively.

As to `O=C1C2=C(c3ccccc31)C(c1ccc(F)cc1)N1C(=O)CCSC1=N2` (stereo not drawn), the TGI in the experiment with HCC-2998 colon, in the experiment on A498 renal, in the experiment with SW-620 colon, with NCI-H23 lung, with UO-31 renal and in the experiment on HT29 colon was > 100 µM each time. Also, the TGI in the experiment with NCI-H522 lung, in the experiment on SF-539 CNS and with OVCAR-8 ovarian was > 100 µM each time.

As for `Cc1ccc(C)c2c1CCc1cc3ccccc3nc1-2`, the TGI with HCC-2998 colon, with A498 renal, with SW-620 colon, in the experiment on NCI-H23 lung, in the experiment with UO-31 renal and in the experiment with HT29 colon was > 100 µM each time. For the same compound, the TGI in the experiment with NCI-H522 lung, in the experiment with SF-539 CNS and in the experiment on OVCAR-8 ovarian was > 100 µM each time.

Regarding `O=C(O)Cc1cc(=O)[nH]c2c1C(=O)CCC2`, the TGI with HCC-2998 colon, in the experiment with SW-620 colon, in the experiment on NCI-H23 lung, in the experiment with UO-31 renal, in the experiment with HT29 colon and with NCI-H522 lung was > 100 µM each time. Moreover, the TGI in the experiment with OVCAR-8 ovarian is > 100 µM.
